These results are taken from ChEMBL document CHEMBL5625237 (Eur J Med Chem, 2023).

Molecules are shown by their SMILES. pEC50, pIC50: −log10 of the molar value.

Data set [1] addresses T1, Replicase polyprotein 1ab (Severe acute respiratory syndrome coronavirus 2, UniProt P0DTD1). The experiment in a line: Inhibition of recombinant full length his tagged C-terminal SARS-CoV 2 main protease (M1 to Q307 residues) expressed in Escherichia coli BL21 (DE3) cells using LGSAVLQ-Rh110-dP as peptide substrate preincubated for 1 hr followed by substrate addition and measured after 24 hrs by fluorescence based analysis.

For data set [2], the system named is SARS-CoV-2. The experiment in a line: Antiviral activity against SARS CoV-2 (hCoV-19/Korea/KCDC06/2020) infected in human Calu-3 cells pre-infected with virus followed by compound addition and measured after 2 days post infection. The class given is functional, organism-based. Particulars: Severe acute respiratory syndrome coronavirus 2, hCoV-19/Korea/KCDC06/2020, Calu-3, 48 h.

A short description of data set [3]: Cytotoxicity against human Calu-3 cells measured after 2 days by MTT assay. The class given is toxicity, cell-based. As to conditions: time 2 day. On the technique in general: Tetrazolium assays rely on reduction of a dye to a coloured formazan, in cell work by metabolically active cells.
Data set [4] can be described thus: Selectivity index, ratio of CC50 for human Calu-3 cells to EC50 for SARS CoV-2 (hCoV-19/Korea/KCDC06/2020) infected in human Calu-3 cells. The format is toxicity, cell-based. As to conditions: read-out: Ratio CC50/EC50.
Data set [5] relates to SARS-CoV-2. The experiment in a line: microbe, parasite or virus in culture. Particulars: Severe acute respiratory syndrome coronavirus 2, USA/NYU-VC-003/2020, A549-ACE2.
Data set [6] has as its target Replicase polyprotein 1ab (Severe acute respiratory syndrome coronavirus 2) (UniProt P0DTD1). Briefly: Inhibition of recombinant full length his tagged C-terminal SARS-CoV 2 main protease (M1 to Q307 residues) expressed in Escherichia coli BL21 (DE3) cells using LGSAVLQ-Rh110-dP as peptide substrate at 10 uM preincubated for 1 hr followed by substrate addition and measured after 24 hrs by fluorescence based analysis relative to control. Particulars: time 25.0 hrs.

In data set [7] the target is T1, Replicase polyprotein 1ab. The experiment in a line: Inhibition of recombinant full length SARS-CoV-2 main protease expressed in Escherichia coli preincubated for 10 mins followed by substrate addition and measured every 30 secs for 10 mins.
For data set [8], the system named is SARS-CoV-2. Briefly: Antiviral activity against SARS-CoV-2 (nCoV-2019BetaCoV/Wuhan/WIV04/2019) infected in african green monkey Vero E6 cells preincubated with compound for 1 hr followed by viral infection for 2 hrs and measured after 24 hrs post infection by real time PCR analysis. The format is functional, organism-based. As to conditions: Severe acute respiratory syndrome coronavirus 2, nCoV-2019BetaCoV/Wuhan/WIV04/2019, Vero C1008. Background: In qPCR the cycle at which signal appears reflects the starting amount.

On to `CCCCCCNC(=O)n1cc(CC)c(=O)[nH]c1=O`, for which, in data set [1], the pIC50 is 5.21.
Turning to `O=C(NCCCNC(=O)n1cc(F)c(=O)[nH]c1=O)c1ccc2cc[nH]c2c1`, in data set [1], the pIC50 is 5.62.
On to `CC(C)Cn1c(C(=O)NCCCNC(=O)n2cc(F)c(=O)[nH]c2=O)cc2cc(OC(F)(F)F)ccc21`, for which the negative logarithm of the IC50 (pIC50) in data set [1] was 5.60.
As to `CCC(CC)COC(=O)[C@H](C)N[P@](=O)(OC[C@H]1O[C@@](C#N)(c2ccc3c(N)ncnn23)[C@H](O)[C@@H]1O)Oc1ccccc1`, the negative-log EC50 (pEC50) with SARS-CoV-2 [2] is 6.24. In addition, in data set [3], the CC50 at 48 h was > 100 µM. Also, in data set [4], the selectivity ratio was > 172.
`Cn1ccc2ccc(C(=O)NCCCNC(=O)n3cc(F)c(=O)[nH]c3=O)cc21`: in data set [1], the pIC50 is 5.42.
Turning to `O=C(c1ccc2cc[nH]c2c1)N1CCC(CCCNC(=O)n2cc(F)c(=O)[nH]c2=O)CC1`, in data set [1], the pIC50 was 5.51.
As for `CCCCCCNC(=O)n1cc(F)c(=O)[nH]c1=O` [CARMOFUR], in the data set on SARS-CoV-2 [2], the pEC50 was < 4.00. Moreover, the 50% cytotoxic concentration (CC50) at 48 h in data set [3] is > 100 µM.
Consider `CC(C)Cn1c(C(=O)NCCCNC(=O)n2cc(F)c(=O)[nH]c2=O)cc2cc(C(F)(F)F)ccc21`, for which the pIC50 in data set [1] was 6.10.
On to `O=C(NCCCNC(=O)n1cc(F)c(=O)[nH]c1=O)c1cc2ccccc2n1Cc1ccccc1`, for which, in data set [1], the pIC50 was 5.29.
The same measure, in the same setting: to `CC(C)(C)OC(=O)N1CCC(CCCNC(=O)n2cc(F)c(=O)[nH]c2=O)CC1` belongs 5.47.
In the case of `Cc1cn(C(=O)NCCCNC(=O)c2cc3cc(F)ccc3n2CC(C)C)c(=O)[nH]c1=O`, the negative logarithm of the IC50 (pIC50) in data set [1] is 6.15. In data set [3], the cytotoxic concentration (CC50) at 48 h is > 100 µM.
Take `CCCCCCNC(=O)n1cc(C)c(=O)[nH]c1=O`: in data set [1], the pIC50 was 5.12.
Still for that read-out and setting: the figure for `CCCCCCNC(=O)n1cc(C(F)(F)F)c(=O)[nH]c1=O` is 5.13.
As to `Cn1c(C(=O)NCCCNC(=O)n2cc(F)c(=O)[nH]c2=O)cc2ccccc21`, in data set [1], the negative-log IC50 (pIC50) was 5.82.
`COc1cccc2[nH]c(C(=O)N[C@@H](CC(C)C)C(=O)N[C@@H](C[C@@H]3CCNC3=O)C(=O)CO)cc12` [PF-00835231]: the pEC50 in the data set with SARS-CoV-2 [5] was 6.66.
For the compound `O=C(NCCCC1CCCCC1)n1cc(F)c(=O)[nH]c1=O`, the pIC50 in data set [1] is 5.48.
For `CC(C)Cn1c(C(=O)NCCCNC(=O)n2cc(F)c(=O)[nH]c2=O)cc2cc(F)ccc21`, in data set [1], the pIC50 is 6.43. In the data set on SARS-CoV-2 [2], this compound showed a negative-log EC50 (pEC50) of 4.54. The half-maximal cytotoxic concentration (CC50) at 48 h in data set [3] turned out to be 98 µM. The selectivity ratio in data set [4] was 3.3.
Consider `CC(C)C[C@H](CNC(=O)c1cc2ccccc2[nH]1)CNC(=O)n1cc(F)c(=O)[nH]c1=O`, for which the pIC50 in data set [1] was 5.36.
For the compound `O=C(NCCCc1ccccc1)n1cc(F)c(=O)[nH]c1=O`, in data set [6], the inhibition was found to be 27%.
As for `O=C(NCCCC1CCNCC1)n1cc(F)c(=O)[nH]c1=O`, in data set [6], the inhibition amounted to 19%.
As for `CC(C)Cn1c(C(=O)NCCCNC(=O)n2ccc(=O)[nH]c2=O)cc2cc(Cl)ccc21`, the negative-log IC50 (pIC50) in data set [1] was 5.80. Besides, the cytotoxic concentration (CC50) at 48 h in data set [3] was > 100 µM.
Take `O=C(Cc1ccccc1)N1CCC(CCCNC(=O)n2cc(F)c(=O)[nH]c2=O)CC1`: the negative logarithm of the IC50 (pIC50) in data set [1] was 5.41.
Same read-out and setting: to `O=C(NCCCCc1ccccc1)n1cc(F)c(=O)[nH]c1=O` belongs 5.41; to `O=C(NCCC1CCCCC1)n1cc(F)c(=O)[nH]c1=O`, 5.31; to `CCCCCCNC(=O)n1ccc(=O)[nH]c1=O`, 5.01.
The same measure, in the same setting: to `COc1ccc2c(c1)cc(C(=O)NCCCNC(=O)n1cc(F)c(=O)[nH]c1=O)n2CC(C)C` belongs 5.85.
On the same count and under the same terms, the figure for `CCCCCCNC(=O)n1cc(Br)c(=O)[nH]c1=O` is 5.13.
Take `O=C(NCCCCC1CCCCC1)n1cc(F)c(=O)[nH]c1=O`: in data set [6], the inhibition came out at 31%.
`CC(C)(C)CC(=O)N1CCC(CCCNC(=O)n2cc(F)c(=O)[nH]c2=O)CC1`: the pIC50 in data set [1] was 5.77; in data set [7] it was 7.28. Further, the pEC50 in the data set on SARS-CoV-2 [2] is 4.92; in the data set with SARS-CoV-2 [8] it was 6.28. In addition, in data set [3], the CC50 at 48 h turned out to be 99 µM. Besides, in data set [4], the selectivity ratio was determined as 8.3.
In the case of `O=C(CC1CCCCC1)N1CCC(CCCNC(=O)n2cc(F)c(=O)[nH]c2=O)CC1`, the negative-log IC50 (pIC50) in data set [1] is 5.35; in data set [7] it was 7.40. The negative-log EC50 (pEC50) in the data set on SARS-CoV-2 [8] was 6.14.
For the compound `CCn1c(C(=O)NCCCNC(=O)n2cc(F)c(=O)[nH]c2=O)cc2ccccc21`, in data set [1], the pIC50 is 5.72.
On the same count and under the same terms, to `O=C(NCCCCCCc1ccccc1)n1cc(F)c(=O)[nH]c1=O` belongs 5.42.
With `CC(C)Cn1c(C(=O)NCCCNC(=O)n2cc(F)c(=O)[nH]c2=O)cc2ccccc21`, the pIC50 in data set [1] is 6.01.
On to `O=C(NCCCNC(=O)n1cc(F)c(=O)[nH]c1=O)c1cc2ccccc2[nH]1`, for which the pIC50 in data set [1] is 5.59.
Same read-out and setting: the figure for `Cc1ccc2c(c1)cc(C(=O)NCCCNC(=O)n1cc(F)c(=O)[nH]c1=O)n2CC(C)C` is 5.92.
In the case of `Cc1cn(C(=O)NCCCNC(=O)c2cc3cc(Cl)ccc3n2CC(C)C)c(=O)[nH]c1=O`, the pIC50 in data set [1] was 5.89. The half-maximal cytotoxic concentration (CC50) at 48 h in data set [3] was > 100 µM.
For the compound `CCCCCCNC(=O)n1cc(Cl)c(=O)[nH]c1=O`, in data set [1], the pIC50 was 5.26.
`CC(C)Cn1c(C(=O)NCCCNC(=O)n2cc(F)c(=O)[nH]c2=O)cc2cc(Cl)ccc21`: the negative-log IC50 (pIC50) in data set [1] is 6.46. Besides, the pEC50 in the data set on SARS-CoV-2 [2] is 4.74. Further, in data set [3], the CC50 at 48 h is > 100 µM. For the same compound, in data set [4], the selectivity ratio was > 5.5.
Consider `CC(C)Cn1c(C(=O)NCCCNC(=O)n2ccc(=O)[nH]c2=O)cc2cc(F)ccc21`, for which the pIC50 in data set [1] was 6.24. For the same compound, the CC50 at 48 h in data set [3] is > 100 µM.
As for `O=C(NCCC1CCCC1)n1cc(F)c(=O)[nH]c1=O`, in data set [1], the negative logarithm of the IC50 (pIC50) is 5.34. This compound had a pEC50 in the data set with SARS-CoV-2 [2] of 4.31. For the same compound, the CC50 at 48 h in data set [3] is > 100 µM. Further, the selectivity ratio in data set [4] is > 2.

Usually pIC50 stands for the negative decadic logarithm of the IC50, by convention in mol/L. As a reminder, the pEC50 is the EC50 on a negative log10 scale, so that one unit is a factor of ten. One may read the CC50 as the concentration giving 50% cytotoxicity. Broadly, the inhibition is how much of the control response was suppressed.
